Numbers after ± are expanded uncertainties.
Conditions: Liquid; for mass density: 293.1 K, 101.33 kPa, Pycnometric method; for vapor or sublimation pressure: Closed cell (Static) method

mass density	vapor or sublimation pressure (414 K)	vapor or sublimation pressure (423.4 K)	vapor or sublimation pressure (433.7 K)	Structure (SMILES)
778.2 ± 0.7 kg/m3	457.67 ± 21 kPa	555.25 ± 21 kPa	677.81 ± 21 kPa	C1CCCCC1 [cyclohexane]
941.4 ± 0.9 kg/m3	–	–	–	OC1CCCCC1 [cyclohexanol]
947.6 ± 0.9 kg/m3	–	–	–	O=C1CCCCC1 [cyclohexanone]

Reference: the NIST ThermoML archive (doi:10.1021/je100028s)
